Results on one compound are retold here after US20250325565A1, “ERAVACYCLINE FOR TREATING CANCER” (B. G. NEGEV TECHNOLOGIES AND APPLICATIONS LTD., priority 2022, published 2025).

What all share (assay type): cell-based, human
The test system of one experiment is p53 (mutated in BxPC-3). The experiment in a line: Western blot of p53 protein expression in BxPC-3 cells. Particulars: BxPC-3, 72 h, increasing concentrations. A general note: Immunoblotting shows a protein as a band on a membrane.
Experiment [1] concerns cleaved Poly (ADP-ribose) polymerase 1 (C-PARP1). The experiment in a line: Western blot of C-PARP1 in BxPC-3 cells. The settings on record: BxPC-3, 15 μM, 72 h. On the procedure: Following the three-day incubation of BxPC-3 cells with medium alone as a control or medium containing different concentrations of eravacycline, gemcitabine, or doxorubicin, BxPC-3 cells were harvested and lysed. BxPC-3 cells were briefly lysed with a buffer containing 20 mM HEPES (pH 7.4), 150 mM NaCl, 1 mM EGTA, 1 mM EDTA, 10% glycerol, 1 mM MgCl2, 1% Triton X-100, and 10 μL of protease phosphatase inhibitors per 1 mL buffer. After incubation on ice for 45 min, the lysates were sonicated for 15 min (40% amplitude without pulses) and centrifuged at 12,000×g at 4° C., and the supernatants were collected. The supernatants were analyzed for protein concentration using the Bradford assay. Absorbance was recorded on a microplate reader at 595 nm (Bio-RadiMark Microplate Absorbance reader).
To evaluate the expression of cell apoptosis-related proteins, cleaved Poly (ADP-ribose) polymerase 1 (C-PARP1) was detected using western blot assays. Actin was used as a control. […] Membranes were incubated for 1 h at room temperature with anti-rabbit secondary antibodies (1:1,000, Sigma-Aldrich). β-actin levels were determined using anti-β-actin (1:10,000, Sigma-Aldrich). Immune complexes were detected with a chemiluminescence reagent (Thermo Fisher Scientific, Pierce ECL Plus Substrate), followed by exposure to Kodak X-ray film (Rochester, NY, USA). […]

The test system of a further experiment is HT-29 cells. The experiment in a line: XTT cell proliferation assay, HT-29. Particulars: HT-29, 72 h, 1-50 μM. The protocol:
(§1) Human PDAC (AsPC-1, BxPC-3, Panc-1 scr, Panc-1 p53-R273H knock-out (KO) hTERT-HPNE), breast (MCF-7), lung (A549), and colon (HT-29) cancer cell lines were purchased from the American Type Culture Collection (ATCC). The MCF-7, A549, Panc-1 scr, Panc-1 p53 KO and HT-29 cell lines were grown in Dulbecco's Modified Eagle Medium (DMEM; Biological Industries, Beit HaEmek (BI), Israel), and the BxPC-3 and AsPC-1 cell lines were cultured in Roswell Park Memorial Institute-1640 (RPMI-1640; BI, Israel) medium. All media was supplemented with 10% fetal bovine serum (FBS), 200 μM L-glutamine (BI), and 1% penicillin-streptomycin (BI). Cells were cultured at 37° C. in a 5% CO2 humidified incubator.
(§2) Eravacycline dihydrochloride (MedChem Express (MCE)) was dissolved in […] (DDW). Tigecycline (MCE) and omadacycline (MCE) were dissolved in dimethyl sulphoxide (DMSO). All drugs were prepared as 100 mM stock solutions. All cell lines were treated with DMSO as a control (less than 0.1%) or tigecycline, omadacycline, or eravacycline (at the indicated concentrations) for 72 hours. Cell viability and proliferation were determined using the XTT Cell Proliferation Assay Kit (Promega).
(§3) The XTT Cell Proliferation Assay Kit was used to determine cell viability and proliferation. Cells were seeded in 96-well plates at a density of 4,000 cells per well and allowed to attach overnight in a 5% CO2 incubator at 37° C. […] After shaking the plate gently to distribute the dye in the wells, the absorbance was measured with a spectrophotometer (Bio-RadiMark Microplate Absorbance reader) at a wavelength of 450 nm and a reference wavelength of 655 nm.
(§4) To evaluate the half maximal inhibitory concentration (IC50) of tetracycline derivatives on five different cell lines (MCF-7, A549, HT-29, BxPC-3, and AsPC-1), the cells were seeded and allowed to attach overnight. […] Inhibition of cell proliferation was determined using the XTT Cell Proliferation Assay Kit. […]
Background: Tetrazolium dyes change colour on reduction, which living cells bring about.

A further experiment has as its system A549 cells. The experiment in a line: XTT cell proliferation assay, A549. The settings on record: A549, 72 h, 1-50 μM. The protocol: as §1, §2, §3, §4
Another experiment concerns AsPC-1 cells. The experiment in a line: XTT cell proliferation assay, AsPC-1. The settings on record: for decrease in cell growth: 72 h. On the procedure:
as §1, §2
The XTT Cell Proliferation Assay Kit was used to determine cell viability and proliferation. Cells were seeded in 96-well plates at a density of 4,000 cells per well and allowed to attach overnight in a 5% CO2 incubator at 37° C. After overnight incubation, cells were treated with culture medium or in a medium containing tigecycline, omadacycline, or eravacycline at different concentrations (1, 2, 5, 10, 25, and 50 μM) for the indicated time period. Then, 50 μl XTT reaction solution (0.1 ml activation solution+5 ml XTT reagent solution) was added to each well, and the plate was incubated at 37° C. for two hours. After shaking the plate gently to distribute the dye in the wells, the absorbance was measured with a spectrophotometer (Bio-RadiMark Microplate Absorbance reader) at a wavelength of 450 nm and a reference wavelength of 655 nm.
To evaluate the half maximal inhibitory concentration (IC50) of tetracycline derivatives on five different cell lines (MCF-7, A549, HT-29, BxPC-3, and AsPC-1), the cells were seeded and allowed to attach overnight. All cells were washed with phosphate buffered saline (PBS) and then cultured in fresh media containing the drugs tigecycline, omadacycline, or eravacycline at an increasing concentration (0-50 μM) for 72 h. Inhibition of cell proliferation was determined using the XTT Cell Proliferation Assay Kit.
To investigate the effect of tetracycline derivatives on cell proliferation in human breast, lung, colon, and PDAC cells, the inventors treated all cell lines (MCF-7, A549, HT-29, BxPC-3, and AsPC-1) with different concentrations of tigecycline, omadacycline, and eravacycline (1, 2, 5, 10, 25, and 50 μM), with medium used as a control, for 72 h. Then, an XTT assay was performed to determine the growth inhibition rate.

For `CN(C)[C@@H]1C(O)=C(C(N)=O)C(=O)[C@@]2(O)C(O)=C3C(=O)c4c(O)c(NC(=O)CN5CCCC5)cc(F)c4C[C@H]3C[C@@H]12` [eravacycline, (4S,4aS,5aR,12aS)-4-(Dimethylamino)-7-fluoro-3,10,12,12a-tetrahydroxy-1,11-dioxo-9-[2-(pyrrolidin-1-yl)acetamido]-1,4,4a,5,5a,6,11,12a-octahydrotetracene-2-carboxamide], in the experiment on p53 (mutated in BxPC-3), the “p53 protein expression vs control” value is recorded as “significantly reduced”. The “C-PARP1 expression vs control” value in experiment [1] is “increased significantly”. Moreover, the “effect on cell survival / proliferation (in words)” value with HT-29 cells and with A549 cells was “No significant effect” each time. In addition, the “decrease in cell growth” value in the experiment on AsPC-1 cells (AsPC-1, 25 μM) is given as 75%; in the experiment with AsPC-1 cells (AsPC-1, 50 μM), 89%. Also, in the experiment with AsPC-1 cells (AsPC-1, 72 h, concentration-dependent, 1-50 μM), the “suppression of proliferation, up to” value is on record as 90-93%. Moreover, the IC50 with AsPC-1 cells (Homo sapiens, ASPC1, AsPC-1, 72 h, XTT, read-out: IC50, inhibition of cell proliferation) was 7.07 µM.
